From patent US20190119193A1, “COMPOSITION FOR REGULATING PLANT GROWTH, METHOD FOR TREATING PLANTS THEREWITH, AND ACTIVE INGREDIENT THEREOF” (Ivan Aleksandrovich Starikov, priority 2016, published 2019)

Test system: alfalfa seeds (“Vega” variety)
Assay: Laboratory tests of DMOA and DEOA for alfalfa seeds
Type: in vivo
Details: for Germinative energy: day 3; for Germinative capacity / Number of lateral roots / Sprout height / Taproot length: day 7
Protocol: After that DMOA and DEOA were dissolved in dimethyl sulfoxide to give solutions of 10 g/L concentration, then water was added to give aqueous solutions of DMOA with concentrations of 5.5·10^−5 M, 5.5·10^−6 M, 5.5·10^−7 M, 5.5·10^−8 M, 5.5·10^−9 M and DEOA with concentrations of 4.8·10^−5 M, 4.8·10^−6 M, 4.8·10^−7 M, 4.8·10^−8 M, 4.8·10^−9 M.
The obtained aqueous solutions of DMOA and DEOA were tested in the Scientific Center of Soil-Ecological Reasearch of the Federal State-Funded Educational Institution of Higher Education “Russian State Agrarian University—Moscow Agricultural Academy named after K. A. Timiryazev” (Moscow, 2015) according to the method described by T. A. Sergeeva (Method of laboratory testing of herbicides, Plant protection, 1963, No. 2, pp. 42-43). The primary laboratory screening of DMOA and DEOA was carried out on the seeds of five different crops: sunflower of “Voronezh 638” variety, soybean of “Vilana” variety, alfalfa of “Vega” variety, cucumber of “Nezhinsky” variety and tomato of “Volgogradets” variety.
Water was used as a reference.
A single experiment was carried out in a Petri dish. A circle of filter paper was laid at the bottom of the dish and treated with 5 ml of the work solution selected for the experiment. After that 25 seeds were uniformly laid on the surface of the treated filter paper. The Petri dish was kept at a temperature of 21-23° C. with illumination by fluorescent lamps for 7 days. The fourfold replication of the experiment within a single variant was applied.
The experiment identified the number and percentage of normally germinated seeds on day 3 (germinative energy) and on day 7 (germinative capacity) after the beginning of the experiment. On day 7 the main biometric parameters were also measured: sprout height (mm), taproot length (mm) and number of lateral roots (pcs).
The results were processed with the method of variance analysis with the help of STRAZ software in order to get the LSD0.05 (least significant difference between the test results on 5% significance level).

`CCOC(=O)C=C([O-])C(=O)OCC.[Na+]` [DEOA, sodium salt of diethyl ester of oxaloacetic acid] was tested, and the Germinative energy (4.8 · 10^−5 M) was 93%, the Germinative capacity (4.8 · 10^−5 M) was 97% and the “Number of lateral roots” value (4.8 · 10^−5 M) was 0.1 pcs. The Sprout height (4.8 · 10^−5 M) was 34.9 ↑↑ mm, the Taproot length (4.8 · 10^−5 M) was 41.9 ↑ mm and the Germinative energy (4.8 · 10^−6 M) was 73%. For the same compound, the Germinative capacity (4.8 · 10^−6 M) was 80%, the “Number of lateral roots” value (4.8 · 10^−6 M) was 0.0 pcs and the Sprout height (4.8 · 10^−6 M) was 32.5 ↑ mm. For the same compound, the Taproot length (4.8 · 10^−6 M) was 37.5 ↑ mm, the Germinative energy (4.8 · 10^−7 M) was 88% and the Germinative capacity (4.8 · 10^−7 M) was 93%. For the same compound, the “Number of lateral roots” value (4.8 · 10^−7 M) was 0.5 pcs, the Sprout height (4.8 · 10^−7 M) was 33.5 ↑ mm and the Taproot length (4.8 · 10^−7 M) was 32.2 mm. For the same compound, the Germinative energy (4.8 · 10^−8 M) was 73%, the Germinative capacity (4.8 · 10^−8 M) was 97% and the “Number of lateral roots” value (4.8 · 10^−8 M) was 0.1 pcs. The Sprout height (4.8 · 10^−8 M) was 32.4 ↑ mm, the Taproot length (4.8 · 10^−8 M) was 42.3 ↑ mm and the Germinative energy (4.8 · 10^−9 M) was 80%. For the same compound, the Germinative capacity (4.8 · 10^−9 M) was 87%, the “Number of lateral roots” value (4.8 · 10^−9 M) was 0.7 ↑ pcs and the Sprout height (4.8 · 10^−9 M) was 28.5 mm. For the same compound, the Taproot length (4.8 · 10^−9 M) was 34.6 mm.
For “Sodium salt of dimethyl ester of oxaloacetic acid [DMOA]”, the Germinative energy (5.5 · 10^−5 M) was 93%, the Germinative capacity (5.5 · 10^−5 M) was 100 ↑ % and the “Number of lateral roots” value (5.5 · 10^−5 M) was 0.6 ↑ pcs. For the same compound, the Sprout height (5.5 · 10^−5 M) was 30.0 mm, the Taproot length (5.5 · 10^−5 M) was 28.1 mm and the Germinative energy (5.5 · 10^−6 M) was 88%. The Germinative capacity (5.5 · 10^−6 M) was 100 ↑ %, the “Number of lateral roots” value (5.5 · 10^−6 M) was 0.7 ↑ pcs and the Sprout height (5.5 · 10^−6 M) was 29.0 mm. The Taproot length (5.5 · 10^−6 M) was 30.9 mm, the Germinative energy (5.5 · 10^−7 M) was 88% and the Germinative capacity (5.5 · 10^−7 M) was 93%. The “Number of lateral roots” value (5.5 · 10^−7 M) was 0.6 ↑ pcs, the Sprout height (5.5 · 10^−7 M) was 28.9 mm and the Taproot length (5.5 · 10^−7 M) was 31.3 mm. The Germinative energy (5.5 · 10^−8 M) was 98 ↑ %, the Germinative capacity (5.5 · 10^−8 M) was 93% and the “Number of lateral roots” value (5.5 · 10^−8 M) was 0.5 ↑ pcs. It also gave a Sprout height (5.5 · 10^−8 M) of 28.9 mm, a Taproot length (5.5 · 10^−8 M) of 31.2 mm and a Germinative energy (5.5 · 10^−9 M) of 88%. The Germinative capacity (5.5 · 10^−9 M) was 100 ↑ %, the “Number of lateral roots” value (5.5 · 10^−9 M) was 0.6 ↑ pcs and the Sprout height (5.5 · 10^−9 M) was 30.1 mm. For the same compound, the Taproot length (5.5 · 10^−9 M) was 35.6 mm.
